From patent US8067442B2, “Heterocyclic antiviral compounds” (Roche Palo Alto LLC, priority 2008, dated 2011)

Key:
[1] = target: T1, HCV polymerase (NS5B570n-Con1) (Hepatitis C virus genotype 1b, UniProt Q9WMX2); test: biochemical; parameters: species or system HCV Con1 strain
T1 construct: a 21 amino acid C-terminal deletion of full-length HCV polymerase; made in house; host or cells: E. coli BL21(DE3) pLysS, plasmid pET17b
Experimental: The enzymatic activity of HCV polymerase (NS5B570n-Con1) was measured as the incorporation of radiolabeled nucleotide monophosphates into acid insoluble RNA products. Unincorporated radiolabeled substrate was removed by filtration and scintillant was added to the washed and dried filter plate containing radiolabeled RNA product. The amount of RNA product generated by NS5B570n-Con1 at the end of the reaction was directly proportional to the amount of light emitted by the scintillant.
The HCV polymerase used in the enzymatic activity assay is a 21 amino acid C-terminal deletion of full-length HCV polymerase derived from HCV Con1 strain, genotype 1b (GenBank accession number AJ242654) (NS5B570n-Con1). The NS5B570n-Con1 was sub-cloned downstream to the T7 promoter of the plasmid expression construct pET17b and transformed into E. coli strain BL21(DE3) pLysS for protein expression. A single colony was used to start an innoculum for a 10 L culture in LB media supplemented with 100 μg/mL ampicillin at 37° C. Protein expression was induced by the addition of 0.25 mM isopropyl-β-D-thiogalactopyranoside (IPTG) when the optical density of the culture at […] was 0.8. Induction of protein expression was carried out at 30° C. for 16 h after which the cells were harvested by centrifugation. NS5B570n-Con1 was purified to homogeneity using a three-column purification protocol including subsequent column chromatography on Ni-NTA, SP-Sepharose HP and Superdex 75 resins.
Enzymatic reactions in the presence of cIRES RNA template (see section [0300]) contained 20 nM cIRES RNA, 20 nM NS5B570n-Con1 enzyme, 0.5 μCi of tritiated UTP (Perkin Elmer catalog no. TRK-412; specific activity: 30 to 60 Ci/mmol), 1 μM each ATP, CTP, and GTP, 40 mM Tris-HCl pH 8.0, 40 mM NaCl, 4 mM DTT (dithiothreitol), 4 mM MgCl2, 5 μl of compound serial diluted in DMSO, and nuclease-free water to a final reaction volume of 50 μl. Enzymatic reactions in the presence of 20 nM cIRES template, 20 nM NS5B570n-Con1 enzyme, 1 μCi of tritiated UTP (Perkin Elmer catalog no. TRK-412; specific activity: 30 to 60 Ci/mmol), 40 mM Tris-HCl pH 8.0, 40 mM NaCl, 4 mM DTT (dithiothreitol), 4 mM MgCl2, 5 μl of compound serial diluted in DMSO, and nuclease-free water to a final reaction volume of 50 μl. Reaction mixtures were assembled in 96-well filter plates (cat #MADVNOB, Millipore Co.) and incubated for 2 h at 30° C. Reactions were stopped by addition of 10% final (v/v) trichloroacetic acid and incubated for 40 min at 4° C. Reactions were filtered, washed with 8 reaction volumes of 10% (v/v) trichloroacetic acetic acid, 4 reaction volumes of 70% (v/v) ethanol, air dried, and 25 μl of scintillant (Microscint 20, Perkin-Elmer) was added to each reaction well.
Two RNA templates can be used to assay compounds described herein. The cIRES RNA template is 377 nucleotide long and consisting of a partial complementary sequence (36 nucleotides) of the core protein, followed by 341 nucleotide of the complementary sequence of the internal ribosome entry site. The poly A RNA template (GE Amersham catalog number 27-4110) was a homopolymeric RNA pre-annealed to a oligo(rU)16 primer at a molar ratio of 3-to-1 (primer-template). The cIRES template was used in the assay unless otherwise noted.
The amount of light emitted from the scintillant was converted to counts per minute (CPM) on a Topcount® plate reader (Perkin-Elmer, Energy Range: Low, Efficiency Mode Normal, Count Time: 1 min, Background Subtract: none, Cross talk reduction: Off).
Data was analyzed in Excel® (Microsoft®) and ActivityBase® (Idbs®). The reaction in the absence of enzyme was used to determine the background signal, which was subtracted from the enzymatic reactions. […] All data was expressed as a percentage of the positive control. The compound concentration at which the enzyme-catalyzed rate of RNA synthesis was reduced by 50% (IC50) was calculated by fitting

Row | SMILES | IC50 [1] [nM] | melting point [°C]
1 | CC(C)(C)c1cc(-c2ccc[nH]c2=O)cc2c(C(=O)c3ccccc3)coc12 [Compound I-20] | 49 | 271 to 272
2 | CC(C)(C)c1cc(-c2ccc[nH]c2=O)cc2c(-c3ccccc3)coc12 [Compound I-24] | 19 | 257 to 258
3 | COc1cccc(-c2coc3c(C(C)(C)C)cc(-c4ccc[nH]c4=O)cc23)c1 [Compound I-33] | 14 | 204 to 205
4 | CC(C)(C)c1cc(-c2ccc[nH]c2=O)cc2c(C(=O)c3cccc(O)c3)coc12 [Compound I-36, 3-[7-tert-Butyl-3-(3-hydroxy-benzoyl)-benzofuran-5-yl]-1H-pyridin-2-one] | 38 | 268 to 269
5 | CC(C)(C)c1cc(-c2ccc[nH]c2=O)cc2c(-c3ccc(CNS(C)(=O)=O)cc3)coc12 [Compound I-37, N-{4-[7-tert-Butyl-5-(2-oxo-1,2-dihydro-pyridin-3-yl)-benzofuran-3-yl]-benzyl}1-methanesulfonamide] | 4 | 271 to 273
6 | CC(C)(C)c1cc(-c2ccc[nH]c2=O)cc2c(C(=O)N3CCC[C@H](N)C3)coc12 [Compound I-41] | 126 | 269 to 270
7 | CC(C)(C)c1cc(-c2ccc[nH]c2=O)cc2c(C(=O)N3CCC[C@@H](N)C3)coc12 [Compound I-42] | 549 | 254.9 to 258.1
8 | CC(C)(C)c1cc(-c2ccc[nH]c2=O)cc2c(C(=O)N3CCC(CN)C3)coc12 (stereo not shown) [Compound I-49] | 104 | > 300
9 | CC(C)(C)c1cc(-c2ccc[nH]c2=O)cc2c(C(=O)N3CCCC(CN)C3)coc12 (stereo not shown) [Compound I-50] | 51 | 150 to 155
10 | CC(C)(C)c1cc(-c2ccc[nH]c2=O)cc2c(C(=O)N3CC[C@H](CNS(C)(=O)=O)C3)coc12 [Compound I-72] | 8 | 258 to 260
11 | CC(C)(C)c1cc(-c2ccc[nH]c2=O)cc2c(-c3ccc(CN(CCO)S(C)(=O)=O)cc3)coc12 [Compound I-76, N-{4-[7-tert-Butyl-5-(2-oxo-1,2-dihydro-pyridin-3-yl)-benzofuran-3-yl]-benzyl}-N-(2-hydroxy-ethyl)-methanesulfonamide] | 35 | 222 to 224
12 | CN(Cc1ccc(-c2coc3c(C(C)(C)C)cc(-c4ccc[nH]c4=O)cc23)cc1)S(C)(=O)=O [Compound I-77] | 36 | 243 to 245
13 | CC(C)(C)c1cc(-c2ccc[nH]c2=O)cc2c(-c3ccc(NS(C)(=O)=O)cc3)coc12 [Compound I-79, N-{4-[7-tert-Butyl-5-(2-oxo-1,2-dihydro-pyridin-3-yl)-benzofuran-3-yl]-phenyl}-methanesulfonamide] | 27 | 182 to 184
14 | CC(=O)Nc1ccc(-c2coc3c(C(C)(C)C)cc(-c4ccc[nH]c4=O)cc23)cc1 [Compound I-80] | 64 | > 300
15 | CC(C)(C)c1cc(-c2ccc[nH]c2=O)cc2c(-c3cccc(CNS(C)(=O)=O)c3)coc12 [Compound I-81] | 175 | 130 to 133
16 | CC(C)(C)c1cc(-c2ccc[nH]c2=O)cc2c(-c3cccc(NS(C)(=O)=O)c3)coc12 [Compound I-82, N-{3-[7-tert-Butyl-5-(2-oxo-1,2-dihydro-pyridin-3-yl)-benzofuran-3-yl]-phenyl}-methanesulfonamide] | 113 | 227 to 230

Row | SMILES | IC50 [1] [nM] | melting point [°C]
17 | CC(C)(C)c1cc(-c2ccc[nH]c2=O)cc2c(C(=O)Nc3cccc(NS(C)(=O)=O)c3)coc12 [Compound I-83] | 201 | 290 to 291
18 | CC(C)(C)c1cc(-c2ccc[nH]c2=O)cc2c(C(=O)Nc3nccs3)coc12 [Compound I-84] | 357 | > 300
19 | CC(C)(C)c1cc(-c2ccc[nH]c2=O)cc2c(C(=O)Nc3cccc(CNS(C)(=O)=O)c3)coc12 [Compound I-85] | 741 | 237 to 239
20 | CC(C)(C)c1cc(-c2ccc[nH]c2=O)cc2c(-c3ccc(C(N)=O)cc3)coc12 [Compound I-87] | 2 | 282 to 284
21 | CC(NS(C)(=O)=O)c1ccc(-c2coc3c(C(C)(C)C)cc(-c4ccc[nH]c4=O)cc23)cc1 (stereo not shown) [Compound I-88, N-(1-{4-[7-tert-Butyl-5-(2-oxo-1,2-dihydro-pyridin-3-yl)-benzofuran-3-yl]-phenyl}-ethyl)-methanesulfonamide] | 8 | 255 to 257
22 | CC(C)(C)c1cc(-c2ccc[nH]c2=O)cc2c(-c3cnc(N)nc3)coc12 [Compound I-89] | 690 | > 300
23 | Cc1ccc(-c2coc3c(C(C)(C)C)cc(-c4ccc[nH]c4=O)cc23)nc1 [Compound I-91, 3-[7-tert-Butyl-3-(5-methyl-pyridin-2-yl)-benzofuran-5-yl]-1H-pyridin-2-one] | 326 | 295 to 297
24 | CC(C)(C)c1cc(-c2cc(F)c[nH]c2=O)cc2c(C(=O)N3CC[C@H](CNS(C)(=O)=O)C3)coc12 [Compound I-92] | 29 | 296 to 298
25 | CC(C)(C)c1cc(-c2ccc[nH]c2=O)cc2c(C(=O)N3CCC3)coc12 [Compound I-94] | 148 | > 300
26 | CC(C)(C)c1cc(-c2ccc[nH]c2=O)cc2c(C(=O)N3CC(CO)C3)coc12 [Compound I-95] | 43 | 292 to 293
27 | CC(C)(C)c1cc(-c2ccc[nH]c2=O)cc2c(-c3ccc(N)nc3)coc12 [Compound I-96, 3-[3-(6-Amino-pyridin-3-yl)-7-tert-butyl-benzofuran-5-yl]-1H-pyridin-2-one] | 47 | 255 to 257
28 | COCc1cc(CNS(C)(=O)=O)ccc1-c1coc2c(C(C)(C)C)cc(-c3ccc[nH]c3=O)cc12 [Compound I-97, N-{4-[7-tert-Butyl-5-(2-oxo-1,2-dihydro-pyridin-3-yl)-benzofuran-3-yl]-3-methoxymethyl-benzyl}-methanesulfonamide] | 515 | 128 to 130
29 | Cc1ccc(-c2cc(C(C)(C)C)c3occ(C(=O)N4CC[C@H](CNS(C)(=O)=O)C4)c3c2)c(=O)[nH]1 [Compound I-98] | 16 | 178 to 180
30 | CC(C)(C)c1cc(-c2ccc[nH]c2=O)cc2c(C(=O)N3CCC(NS(C)(=O)=O)CC3)coc12 [Compound I-99] | 876 | 193 to 195
31 | CC(C)(C)c1cc(-c2ccc[nH]c2=O)cc2c(C(=O)N3CC(O)C3)coc12 [Compound I-102] | 135 | 264 to 266
32 | CN(CC1CCCN(C(=O)c2coc3c(C(C)(C)C)cc(-c4ccc[nH]c4=O)cc23)C1)S(C)(=O)=O (stereo not shown) [Compound I-104] | 20 | 155 to 157
